Experimental data from ChEMBL document CHEMBL5465560, “Selectivity Literature for EUbOPEN Chemogenomic Library” (2024).
Each block holds one compound with its values, some of them ahead of it.

Experiments:
[1] = molecular target: T1, Ribosomal protein S6 kinase alpha-6 (Homo sapiens, UniProt Q9UK32); assay: Selectivity interaction (Ambit KINOMEscan and KiNATiv profiling in Jurkat cells) EUB0000090b RPS6KA6; assay type: cell-based; details: at 1 µM
[2] = molecular target: T2, Protein kinase C iota type (Homo sapiens) (UniProt P41743); assay: Selectivity interaction (KinomeScan (DiscoverX)) EUB0000655a PRKCI; details: at 10 µM
T2 sequence (whole entry): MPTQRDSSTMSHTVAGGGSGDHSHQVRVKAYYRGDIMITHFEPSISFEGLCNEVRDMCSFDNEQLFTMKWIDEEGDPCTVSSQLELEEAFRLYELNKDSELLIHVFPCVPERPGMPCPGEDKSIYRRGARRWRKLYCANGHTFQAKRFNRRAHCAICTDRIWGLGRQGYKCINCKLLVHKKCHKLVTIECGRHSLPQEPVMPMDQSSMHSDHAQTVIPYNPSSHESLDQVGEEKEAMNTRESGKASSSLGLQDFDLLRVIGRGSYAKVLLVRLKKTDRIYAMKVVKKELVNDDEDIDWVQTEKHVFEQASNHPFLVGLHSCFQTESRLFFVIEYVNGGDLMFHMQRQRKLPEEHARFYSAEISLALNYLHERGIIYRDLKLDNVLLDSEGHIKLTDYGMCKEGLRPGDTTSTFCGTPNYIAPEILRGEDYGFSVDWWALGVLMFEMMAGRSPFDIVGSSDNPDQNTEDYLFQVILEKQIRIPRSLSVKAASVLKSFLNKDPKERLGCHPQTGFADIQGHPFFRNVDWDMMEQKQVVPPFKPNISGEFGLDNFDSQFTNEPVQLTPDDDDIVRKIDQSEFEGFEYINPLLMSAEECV

[3] = molecular target: T1, Ribosomal protein S6 kinase alpha-6; assay: Selectivity interaction (KinomeScan (DiscoverX)) EUB0001079a RPS6KA6; details: at 1 µM
[4] = molecular target: T3, Myosin-IIIb (Homo sapiens) (UniProt Q8WXR4); assay: Selectivity interaction (KinomeScan (DiscoverX)) EUB0000618a MYO3B; details: at 10 µM
T3 sequence (whole entry): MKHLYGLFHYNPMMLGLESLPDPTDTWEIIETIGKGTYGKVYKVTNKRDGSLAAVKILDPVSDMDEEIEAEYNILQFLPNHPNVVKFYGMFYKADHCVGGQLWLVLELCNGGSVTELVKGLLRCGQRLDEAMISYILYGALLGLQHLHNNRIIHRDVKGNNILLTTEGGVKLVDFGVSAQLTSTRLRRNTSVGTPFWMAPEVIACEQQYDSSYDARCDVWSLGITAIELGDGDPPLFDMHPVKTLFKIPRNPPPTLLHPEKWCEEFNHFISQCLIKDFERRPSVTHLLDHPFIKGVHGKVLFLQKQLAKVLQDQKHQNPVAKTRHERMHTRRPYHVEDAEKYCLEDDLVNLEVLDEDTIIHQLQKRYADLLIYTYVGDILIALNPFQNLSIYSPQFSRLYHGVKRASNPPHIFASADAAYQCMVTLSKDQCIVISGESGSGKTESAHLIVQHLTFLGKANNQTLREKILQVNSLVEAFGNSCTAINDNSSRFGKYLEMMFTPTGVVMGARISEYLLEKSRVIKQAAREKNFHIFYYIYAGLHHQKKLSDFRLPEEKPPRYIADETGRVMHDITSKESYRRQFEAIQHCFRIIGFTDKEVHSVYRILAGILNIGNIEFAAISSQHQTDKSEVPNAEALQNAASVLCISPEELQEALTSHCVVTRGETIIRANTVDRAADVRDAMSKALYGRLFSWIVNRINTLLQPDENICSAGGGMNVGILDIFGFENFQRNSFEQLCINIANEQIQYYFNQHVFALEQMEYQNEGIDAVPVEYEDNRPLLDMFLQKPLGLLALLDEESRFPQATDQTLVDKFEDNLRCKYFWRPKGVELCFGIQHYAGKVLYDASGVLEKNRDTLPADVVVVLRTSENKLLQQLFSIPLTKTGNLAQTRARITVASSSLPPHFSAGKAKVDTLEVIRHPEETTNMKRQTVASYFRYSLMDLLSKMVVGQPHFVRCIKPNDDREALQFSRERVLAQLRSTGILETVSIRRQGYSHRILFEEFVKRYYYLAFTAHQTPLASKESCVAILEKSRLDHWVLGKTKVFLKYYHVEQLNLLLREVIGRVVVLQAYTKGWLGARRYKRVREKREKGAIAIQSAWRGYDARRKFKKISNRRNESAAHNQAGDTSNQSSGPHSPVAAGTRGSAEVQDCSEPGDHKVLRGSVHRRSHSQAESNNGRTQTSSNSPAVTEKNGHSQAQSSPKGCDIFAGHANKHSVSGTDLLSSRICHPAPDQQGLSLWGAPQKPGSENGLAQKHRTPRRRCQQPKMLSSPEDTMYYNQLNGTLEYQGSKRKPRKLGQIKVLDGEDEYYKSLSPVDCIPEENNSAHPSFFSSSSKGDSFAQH

[5] = molecular target: Tyrosine-protein kinase Fyn (Homo sapiens) (UniProt P06241); assay: Selectivity interaction (KinomeScan (DiscoverX)) EUB0000607a FYN; details: at 10 µM
[6] = molecular target: Ribosomal protein S6 kinase alpha-4 (Homo sapiens) (UniProt O75676); assay: Selectivity interaction (KinomeScan (DiscoverX)) EUB0001619a RPS6KA4; details: at 1 µM
[7] = molecular target: Tyrosine-protein kinase JAK1 (Homo sapiens, UniProt P23458); assay: Selectivity interaction (SelectScreen Kinase Profiling (Thermo Fisher Scientific)) EUB0001558a JAK1; details: at 1 µM
[8] = molecular target: Tyrosine-protein kinase receptor UFO (Homo sapiens) (UniProt P30530); assay: Selectivity interaction (KinomeScan (DiscoverX)) EUB0000595a AXL; details: at 10 µM
[9] = molecular target: Casein kinase I isoform gamma-2 (Homo sapiens) (UniProt P78368); details: at 10 µM
[10] = molecular target: Proto-oncogene tyrosine-protein kinase Src (Homo sapiens, UniProt P12931); assay: Selectivity interaction (Kinase panel (Invitrogen)) EUB0000639a SRC; details: at 200 nM
[11] = molecular target: Mitogen-activated protein kinase 1 (Homo sapiens, UniProt P28482); assay: Selectivity interaction (KinomeScan (DiscoverX)) EUB0000229b MAPK1; details: at 10 µM
[12] = molecular target: Cyclin-dependent kinase 17 (Homo sapiens) (UniProt Q00537); assay: Selectivity interaction (KinomeScan (DiscoverX)) EUB0001049a CDK17; details: at 1 µM
[13] = test system: Phosphatidylinositol 4,5-bisphosphate 3-kinase catalytic subunit alpha isoform (Homo sapiens), P42336 [I800L]; details: at 10 µM
[14] = molecular target: Mitogen-activated protein kinase 7 (Homo sapiens) (UniProt Q13164); assay: Selectivity interaction (Rxn Biology Kinase assay) EUB0001632a MAPK7; details: at 10 µM
[15] = molecular target: Wee1-like protein kinase (Homo sapiens) (UniProt P30291); assay: Selectivity interaction (LanthaScreen Eu Kinase Binding Assay) EUB0001632a WEE1; details: at 10 µM
Chain of Wee1-like protein kinase (Homo sapiens) (P30291 whole entry, looked up): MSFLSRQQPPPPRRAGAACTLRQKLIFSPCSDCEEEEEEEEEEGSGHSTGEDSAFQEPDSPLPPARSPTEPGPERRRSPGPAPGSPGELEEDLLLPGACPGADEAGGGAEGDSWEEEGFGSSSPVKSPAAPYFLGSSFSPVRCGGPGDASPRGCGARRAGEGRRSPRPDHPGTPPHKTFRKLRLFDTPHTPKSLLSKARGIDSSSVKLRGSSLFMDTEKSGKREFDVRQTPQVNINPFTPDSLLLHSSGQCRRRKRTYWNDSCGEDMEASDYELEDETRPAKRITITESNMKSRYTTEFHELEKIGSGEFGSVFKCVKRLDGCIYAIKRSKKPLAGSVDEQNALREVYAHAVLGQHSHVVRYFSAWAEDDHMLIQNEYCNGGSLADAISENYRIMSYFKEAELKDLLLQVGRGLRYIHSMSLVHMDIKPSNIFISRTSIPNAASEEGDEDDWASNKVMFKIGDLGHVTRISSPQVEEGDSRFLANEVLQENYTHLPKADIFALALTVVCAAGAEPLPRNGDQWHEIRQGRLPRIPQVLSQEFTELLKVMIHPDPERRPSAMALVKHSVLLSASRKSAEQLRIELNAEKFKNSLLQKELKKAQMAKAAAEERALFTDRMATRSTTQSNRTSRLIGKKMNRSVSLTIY

T1 sequence (Q9UK32 whole entry): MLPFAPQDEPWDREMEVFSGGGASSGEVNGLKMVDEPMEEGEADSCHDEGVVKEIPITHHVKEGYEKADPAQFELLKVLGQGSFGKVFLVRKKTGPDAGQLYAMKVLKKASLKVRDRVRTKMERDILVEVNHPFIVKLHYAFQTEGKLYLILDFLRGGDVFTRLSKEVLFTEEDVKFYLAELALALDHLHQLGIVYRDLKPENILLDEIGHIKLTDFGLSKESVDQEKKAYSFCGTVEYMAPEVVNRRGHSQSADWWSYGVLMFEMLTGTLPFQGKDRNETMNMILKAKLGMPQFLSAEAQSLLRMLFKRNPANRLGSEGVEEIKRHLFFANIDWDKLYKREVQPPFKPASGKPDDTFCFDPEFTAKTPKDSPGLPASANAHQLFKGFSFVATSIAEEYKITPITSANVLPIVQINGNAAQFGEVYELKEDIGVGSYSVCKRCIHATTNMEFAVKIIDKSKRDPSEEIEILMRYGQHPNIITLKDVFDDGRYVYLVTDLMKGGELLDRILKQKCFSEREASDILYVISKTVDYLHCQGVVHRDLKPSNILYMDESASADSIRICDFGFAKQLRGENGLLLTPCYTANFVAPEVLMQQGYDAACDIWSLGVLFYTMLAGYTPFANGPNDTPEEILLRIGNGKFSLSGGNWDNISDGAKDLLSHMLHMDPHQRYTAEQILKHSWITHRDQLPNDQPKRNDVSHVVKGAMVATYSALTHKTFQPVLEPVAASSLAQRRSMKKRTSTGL
Chain of Proto-oncogene tyrosine-protein kinase Src (P12931 2-536 limits assumed): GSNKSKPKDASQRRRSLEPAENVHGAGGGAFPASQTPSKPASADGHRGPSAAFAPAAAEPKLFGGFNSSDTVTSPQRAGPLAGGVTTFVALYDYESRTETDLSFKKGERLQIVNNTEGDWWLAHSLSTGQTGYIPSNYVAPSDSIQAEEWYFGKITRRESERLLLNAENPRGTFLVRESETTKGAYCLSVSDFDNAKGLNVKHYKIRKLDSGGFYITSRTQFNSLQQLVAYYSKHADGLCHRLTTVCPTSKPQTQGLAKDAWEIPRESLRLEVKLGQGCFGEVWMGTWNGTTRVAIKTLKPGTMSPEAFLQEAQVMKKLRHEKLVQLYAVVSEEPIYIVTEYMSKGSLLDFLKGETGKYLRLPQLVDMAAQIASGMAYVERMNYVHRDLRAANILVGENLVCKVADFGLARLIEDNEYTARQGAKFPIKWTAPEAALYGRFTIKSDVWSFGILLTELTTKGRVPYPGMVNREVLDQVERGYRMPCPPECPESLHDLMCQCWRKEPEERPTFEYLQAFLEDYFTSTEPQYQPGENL
Chain of Mitogen-activated protein kinase 1 (P28482 whole entry): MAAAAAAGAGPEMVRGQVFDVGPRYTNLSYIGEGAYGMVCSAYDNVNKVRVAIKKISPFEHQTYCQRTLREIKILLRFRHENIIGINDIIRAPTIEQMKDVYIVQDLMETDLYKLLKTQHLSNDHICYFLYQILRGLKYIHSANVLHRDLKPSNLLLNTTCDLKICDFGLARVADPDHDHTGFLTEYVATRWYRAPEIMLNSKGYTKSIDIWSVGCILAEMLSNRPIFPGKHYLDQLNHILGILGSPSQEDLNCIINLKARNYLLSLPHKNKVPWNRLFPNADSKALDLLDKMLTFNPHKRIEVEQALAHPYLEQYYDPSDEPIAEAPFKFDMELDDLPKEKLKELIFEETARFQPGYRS
Chain of Cyclin-dependent kinase 17 (Homo sapiens) (Q00537 whole entry, looked up, canonical isoform): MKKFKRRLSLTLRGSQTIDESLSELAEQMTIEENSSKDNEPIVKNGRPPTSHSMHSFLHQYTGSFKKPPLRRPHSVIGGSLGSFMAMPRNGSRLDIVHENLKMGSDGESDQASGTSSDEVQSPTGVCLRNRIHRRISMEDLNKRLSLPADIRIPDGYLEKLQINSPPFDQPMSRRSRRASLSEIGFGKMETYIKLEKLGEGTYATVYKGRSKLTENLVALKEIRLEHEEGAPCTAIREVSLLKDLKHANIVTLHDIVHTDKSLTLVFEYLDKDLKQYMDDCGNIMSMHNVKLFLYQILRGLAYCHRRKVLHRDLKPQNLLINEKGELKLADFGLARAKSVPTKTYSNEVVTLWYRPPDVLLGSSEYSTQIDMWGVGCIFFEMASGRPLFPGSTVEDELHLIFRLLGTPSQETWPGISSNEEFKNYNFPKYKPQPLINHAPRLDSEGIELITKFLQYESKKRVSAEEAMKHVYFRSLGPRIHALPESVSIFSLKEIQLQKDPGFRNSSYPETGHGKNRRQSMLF
Chain of Tyrosine-protein kinase receptor UFO (Homo sapiens) (P30530 whole entry, canonical isoform): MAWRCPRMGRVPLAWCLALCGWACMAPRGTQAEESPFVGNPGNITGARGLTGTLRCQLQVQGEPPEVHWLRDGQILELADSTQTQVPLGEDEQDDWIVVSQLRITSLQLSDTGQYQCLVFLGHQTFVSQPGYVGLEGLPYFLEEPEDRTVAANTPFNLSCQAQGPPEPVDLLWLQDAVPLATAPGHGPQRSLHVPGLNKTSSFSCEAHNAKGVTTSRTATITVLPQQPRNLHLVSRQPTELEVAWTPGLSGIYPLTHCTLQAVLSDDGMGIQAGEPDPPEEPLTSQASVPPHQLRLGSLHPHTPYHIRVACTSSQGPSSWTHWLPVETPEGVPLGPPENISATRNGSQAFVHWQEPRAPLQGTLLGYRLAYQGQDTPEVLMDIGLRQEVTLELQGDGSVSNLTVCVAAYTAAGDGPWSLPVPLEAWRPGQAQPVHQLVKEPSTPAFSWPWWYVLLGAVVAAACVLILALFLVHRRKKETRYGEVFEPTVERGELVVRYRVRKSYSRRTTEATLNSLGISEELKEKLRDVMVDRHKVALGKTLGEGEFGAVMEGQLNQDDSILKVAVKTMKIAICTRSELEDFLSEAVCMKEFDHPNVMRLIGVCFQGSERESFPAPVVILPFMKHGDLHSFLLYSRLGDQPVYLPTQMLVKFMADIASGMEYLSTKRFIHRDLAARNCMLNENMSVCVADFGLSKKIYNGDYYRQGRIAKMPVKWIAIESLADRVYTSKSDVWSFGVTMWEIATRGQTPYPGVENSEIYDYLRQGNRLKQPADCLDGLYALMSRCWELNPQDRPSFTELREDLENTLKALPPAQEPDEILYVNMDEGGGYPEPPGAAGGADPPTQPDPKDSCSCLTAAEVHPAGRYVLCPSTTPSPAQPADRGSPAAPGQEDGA
Chain of Mitogen-activated protein kinase 7 (Homo sapiens) (Q13164 2-816 limits assumed): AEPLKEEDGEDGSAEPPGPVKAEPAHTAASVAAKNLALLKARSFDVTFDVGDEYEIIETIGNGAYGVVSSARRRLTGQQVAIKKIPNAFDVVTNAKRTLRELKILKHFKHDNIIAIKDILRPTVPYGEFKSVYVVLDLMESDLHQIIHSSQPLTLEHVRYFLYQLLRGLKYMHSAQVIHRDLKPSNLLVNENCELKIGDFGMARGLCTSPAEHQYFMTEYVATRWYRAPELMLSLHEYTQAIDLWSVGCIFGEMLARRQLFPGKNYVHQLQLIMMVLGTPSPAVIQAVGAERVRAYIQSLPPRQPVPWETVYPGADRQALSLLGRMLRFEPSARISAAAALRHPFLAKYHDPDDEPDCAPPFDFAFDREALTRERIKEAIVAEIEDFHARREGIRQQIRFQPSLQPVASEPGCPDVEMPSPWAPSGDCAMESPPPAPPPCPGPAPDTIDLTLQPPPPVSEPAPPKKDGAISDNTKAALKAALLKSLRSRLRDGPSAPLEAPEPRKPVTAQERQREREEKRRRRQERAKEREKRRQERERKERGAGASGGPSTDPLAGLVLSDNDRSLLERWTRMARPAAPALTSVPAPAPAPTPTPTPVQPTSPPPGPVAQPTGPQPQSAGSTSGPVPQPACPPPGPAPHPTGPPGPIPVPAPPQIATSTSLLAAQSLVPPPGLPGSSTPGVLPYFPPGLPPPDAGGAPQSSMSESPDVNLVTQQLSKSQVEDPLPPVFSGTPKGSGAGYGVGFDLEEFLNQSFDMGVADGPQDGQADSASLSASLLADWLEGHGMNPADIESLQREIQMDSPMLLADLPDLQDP
Chain of Casein kinase I isoform gamma-2 (Homo sapiens) (P78368 whole entry, looked up, canonical isoform): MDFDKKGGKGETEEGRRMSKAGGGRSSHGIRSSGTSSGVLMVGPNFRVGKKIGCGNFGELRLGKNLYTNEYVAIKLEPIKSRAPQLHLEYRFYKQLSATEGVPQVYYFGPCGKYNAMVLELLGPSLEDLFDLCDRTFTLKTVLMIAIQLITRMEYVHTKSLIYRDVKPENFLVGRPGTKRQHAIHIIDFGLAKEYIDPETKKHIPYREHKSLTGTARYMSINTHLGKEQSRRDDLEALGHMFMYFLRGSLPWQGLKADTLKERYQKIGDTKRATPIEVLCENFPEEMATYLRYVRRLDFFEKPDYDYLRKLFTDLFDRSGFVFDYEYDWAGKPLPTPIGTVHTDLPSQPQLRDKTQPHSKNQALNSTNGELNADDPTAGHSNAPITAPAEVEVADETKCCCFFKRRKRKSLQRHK

SMILES: CN(C)C/C=C/C(=O)Nc1ccc(C(=O)N2CCCC(Nc3ncc(Cl)c(-c4c[nH]c5ccccc45)n3)C2)cc1 (stereo not given)
% of control [1]: 92%

SMILES: CN(C)CCOc1ccc(-c2nc(-c3ccncc3)c(-c3ccc4c(c3)CC/C4=N\O)[nH]2)cc1
% of control [2]: 80%

SMILES: Nc1cnc(N2CCc3cc(S(=O)(=O)Nc4c(F)cc(Cl)cc4F)cc(N4CCCC4=O)c32)nc1 [TP-020n]
% of control [3]: 100%

SMILES: O[C@H]1CC[C@H](Nc2ncc3nc(Nc4c(F)cc(F)cc4F)n([C@H]4CCOC4)c3n2)CC1
% of control [4]: 95%

SMILES: CNC(=O)Nc1ccc(-c2nc(N3CC4CCC(C3)O4)c3cnn(C4CCC5(CC4)OCCO5)c3n2)cc1
% of control [5]: 70%

SMILES: N#Cc1cccc(-c2c[nH]c3ncnc(N4CCOCC4)c23)c1
% of control [6]: 71%

SMILES: CC(C)(O)[C@H](F)CN1Cc2cc(NC(=O)c3cnn4cccnc34)c(N3CCOCC3)cc2C1=O
% of inhibition [7]: 83.5%

SMILES: COCC(=O)NC/C=C/c1ccc2ncnc(Nc3ccc(Oc4ccc(C)nc4)c(C)c3)c2c1 [CP-724714]
% of control [8]: 68%

SMILES: Cc1cc([C@@H](C)Nc2ccccc2C(=O)O)c2nc(N3CCOCC3)cc(=O)n2c1 [AZD-6482]
% of control [9]: 88%

% of inhibition [10]: 14.4%
SMILES: CC[C@@H]1[C@H](F)C(=O)N[C@@H]1COc1nccc2cc(C(N)=O)c(OC)cc12 [ZIMLOVISERTIB]

SMILES: COc1cc(N(C)c2ccnc3ccc(C(F)(F)F)cc23)cc(OC)c1OC
% binding [11]: 97%

SMILES: COc1cc(Nc2nc(C)cc(-c3cnn4nc(OC)ccc34)n2)cc(C(F)(F)F)c1
% of control [12]: 100%

SMILES: CCC(=O)N1CCN(c2ccc(-n3c(=O)ccc4cnc5ccc(-c6cnc7ccccc7c6)cc5c43)cc2C(F)(F)F)CC1
% of control [13]: 0%

% of inhibition [14]: -29.8%
% of inhibition [15]: -20.9%
SMILES: Cn1cc(-n2cnc3c(NCc4nc5cc(Cl)c(Cl)cc5[nH]4)nc(N4CCOCC4)nc32)cn1
